# From US11787762B2, “Tetralin and tetrahydroquinoline compounds as inhibitors of HIF-2alpha” (ARCUS BIOSCIENCES, INC., priority 2020, dated 2023)
# Molecular target: T1, HIF-2α (Homo sapiens, UniProt Q99814)
# T1 construct: host or cells: 786-O cells stably transduced with Cignal Lenti HIF Luc Reporter (only the reporter was introduced, not HIF-2α)
# Assay: HIF-2α luciferase reporter assay in HIF-Luc-786-O cells
# Type: cell-based
# Conditions: Table 1, 20 hours incubation
# Procedure: Generation of HIF-2α Luciferase 786-O Cell Line:
# Stable cell lines were generated by transducing 786-O cells (ATCC, CRL-1932) with Cignal Lenti HIF Luc Reporter lentivirus (CLS-007 L, Qiagen) according to the manufacturer's guidelines. In brief, 0.3×10^6 786-0 cells were transduced with lentivirus at a Multiplicity of Infection (MOI) of 25 for 24 hours. After transduction, cells were replenished with fresh RPMI 1640 Medium (Cat. No. 11875085, Thermo Fisher,) supplemented with 10% FBS (Cat. No. A3160502, Gibco), 2 mM GlutaMax (Cat. No. 35050-061, Invitrogen) and 100 units of penicillin and 100 μg of streptomycin/mL (Cat. No 15070063, Thermo Fisher) for another 24 hours. Antibiotic selection was performed in cell media containing 4 μg/mL of Puromycin. After 7 days of antibiotic selection, stable pools of surviving cells were expanded and used in a luciferase reporter assay.
# HIF-2α Luciferase Reporter Assay:
# On day one, 20 uL of HIF-Luc-786-0 cells in OptiMem (Cat. No. 31985088, Thermo Fisher) were seeded into each well of a 384 well white opaque plate (Corning 3570) and incubated at 37° C. and 5% CO2. Twenty microliters of 2× test compounds in OptiMem were added to cells after 4 hours of incubation. Final assay conditions comprised 20,000 cells per well in 1% DMSO with test compound concentrations ranging from 50 uM to 0 uM. After 20 hours incubation at 37° C. and 5% CO2, luciferase activity was determined using ONE-Glo Luciferase Assay Reagent (E6110, Promega) following the manufacture's recommended procedure. Briefly, 40 uL of ONE-Glo luciferase reagents were added to each well and luciferase signals were measured using an Envision 2102 Multilabel Reader. Percentage maximum activity in each test well was calculated based on DMSO (maximum activity) and no cell control wells (baseline activity). The IC50 values of the test compounds were determined from compound dose response curves fitted using a standard four parameter fit equation.
# T1 sequence (Q99814 whole entry): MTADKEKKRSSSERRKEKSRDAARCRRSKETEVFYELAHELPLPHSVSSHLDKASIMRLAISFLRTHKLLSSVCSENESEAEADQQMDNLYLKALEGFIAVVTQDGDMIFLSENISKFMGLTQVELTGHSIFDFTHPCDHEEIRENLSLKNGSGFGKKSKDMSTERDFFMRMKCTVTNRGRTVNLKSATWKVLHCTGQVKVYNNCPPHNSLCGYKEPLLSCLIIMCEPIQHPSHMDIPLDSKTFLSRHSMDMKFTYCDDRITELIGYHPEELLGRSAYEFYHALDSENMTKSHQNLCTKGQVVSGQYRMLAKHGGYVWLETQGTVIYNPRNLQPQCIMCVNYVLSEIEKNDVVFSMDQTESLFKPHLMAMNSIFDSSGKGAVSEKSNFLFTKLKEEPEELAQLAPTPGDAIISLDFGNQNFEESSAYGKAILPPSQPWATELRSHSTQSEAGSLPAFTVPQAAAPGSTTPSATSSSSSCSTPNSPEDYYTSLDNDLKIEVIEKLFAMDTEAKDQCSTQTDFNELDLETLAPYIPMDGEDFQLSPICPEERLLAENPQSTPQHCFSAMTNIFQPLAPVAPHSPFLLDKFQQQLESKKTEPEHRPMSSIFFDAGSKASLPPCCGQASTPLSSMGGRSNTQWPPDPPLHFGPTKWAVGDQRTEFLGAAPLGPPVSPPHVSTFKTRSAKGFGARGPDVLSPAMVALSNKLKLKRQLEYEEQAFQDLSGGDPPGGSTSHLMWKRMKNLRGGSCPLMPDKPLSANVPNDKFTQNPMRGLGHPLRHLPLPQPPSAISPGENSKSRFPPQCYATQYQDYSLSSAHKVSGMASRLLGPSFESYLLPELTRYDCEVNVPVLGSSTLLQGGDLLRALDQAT
row,IC50 [nM],SMILES
1,> 1000,O=[N+]([O-])c1cc(S(=O)(=O)C(F)(F)F)ccc1N1CCCc2ccc(C(F)F)cc21 [Example 67]
2,> 1000,O=[N+]([O-])c1cc(S(=O)(=O)C(F)(F)F)ccc1N1CCOc2ccc(Cl)cc21 [Example 82]

# Same assay, conditions: Table 3, 20 hours incubation
row,SMILES,IC50 [nM]
1,"Cc1ccccc1-c1ccc([C@H]2CC[C@H](F)c3cc(F)cc(C#N)c32)c2c1[C@H](O)C(F)(F)C2 [Example 144, (5S,8R)-8-[(1S)-2,2-difluoro-1-hydroxy-7-(2-methylphenyl)-2,3-dihydro-1H-inden-4-yl]-3,5-difluoro-5,6,7,8-tetrahydronaphthalene-1-carbonitrile]",< 100
2,"Cn1cc(-c2ccc([C@H]3CC[C@H](F)c4cc(F)cc(C#N)c43)c3c2[C@H](O)C(F)(F)C3)nn1 [Example 146, (5S,8R)-8-[(1S)-2,2-difluoro-1-hydroxy-7-(1-methyl-1H-1,2,3-triazol-4-yl)-2,3-dihydro-1H-inden-4-yl]-3,5-difluoro-5,6,7,8-tetrahydronaphthalene-1-carbonitrile]",< 100
3,"Cc1ncc(-c2ccc([C@H]3CC[C@H](F)c4cc(F)cc(C#N)c43)c3c2[C@H](O)C(F)(F)C3)o1 [Example 148, (5S,8R)-8-[(1S)-2,2-difluoro-1-hydroxy-7-(2-methyl-1,3-oxazol-5-yl)-1,3-dihydroinden-4-yl]-3,5-difluoro-5,6,7,8-tetrahydronaphthalene-1-carbonitrile]",100 to 1000
4,"N#Cc1cc(N)ncc1-c1ccc([C@H]2CC[C@H](F)c3cc(F)cc(C#N)c32)c2c1[C@H](O)C(F)(F)C2 [Example 149, 2-amino-5-[(3S)-7-[(1R,4S)-8-cyano-4,6-difluoro-1,2,3,4-tetrahydronaphthalen-1-yl]-2,2-difluoro-3-hydroxy-1,3-dihydroinden-4-yl] pyridine-4-carbonitrile]",< 100
5,"Cn1cc(-c2ccc([C@H]3CC[C@H](F)c4cc(F)cc(C#N)c43)c3c2[C@H](O)C(F)(F)C3)cn1 [Example 150, (5S,8R)-8-[(1S)-2,2-difluoro-1-hydroxy-7-(1-methylpyrazol-4-yl)-1,3-dihydroinden-4-yl]-3,5-difluoro-5,6,7,8-tetrahydronaphthalene-1-carbonitrile]",100 to 1000
6,"Cc1ncoc1-c1ccc([C@H]2CC[C@H](F)c3cc(F)cc(C#N)c32)c2c1[C@H](O)C(F)(F)C2 [Example 151, (5S,8R)-8-[(1S)-2,2-difluoro-1-hydroxy-7-(4-methyl-1,3-oxazol-5-yl)-1,3-dihydroinden-4-yl]-3,5-difluoro-5,6,7,8-tetrahydronaphthalene-1-carbonitrile]",< 100
7,"Cc1c(C#N)cccc1-c1ccc([C@H]2CC[C@H](F)c3cc(F)cc(C#N)c32)c2c1[C@H](O)C(F)(F)C2 [Example 155, (5S,8R)-8-[(1S)-7-(3-cyano-2-methylphenyl)-2,2-difluoro-1-hydroxy-1,3-dihydroinden-4-yl]-3,5-difluoro-5,6,7,8-tetrahydronaphthalene-1-carbonitrile]",< 100
8,"N#Cc1cc(F)cc2c1[C@@H](c1ccc(-c3ccncc3)c3c1CC(F)(F)[C@H]3O)CC[C@@H]2F [Example 156, (5S,8R)-8-[(1S)-2,2-difluoro-1-hydroxy-7-pyridin-4-yl-1,3-dihydroinden-4-yl]-3,5-difluoro-5,6,7,8-tetrahydronaphthalene-1-carbonitrile]",100 to 1000
9,"N#Cc1cc(F)cc2c1[C@@H](c1ccc(-c3cncs3)c3c1CC(F)(F)[C@H]3O)CC[C@@H]2F [Example 158, (5S,8R)-8-[(1S)-2,2-difluoro-1-hydroxy-7-(1,3-thiazol-5-yl)-1,3-dihydroinden-4-yl]-3,5-difluoro-5,6,7,8-tetrahydronaphthalene-1-carbonitrile]",< 100
10,"N#Cc1cc(F)cc2c1[C@@H](c1ccc(-c3cccnc3)c3c1CC(F)(F)[C@H]3O)CC[C@@H]2F [Example 160, (5S,8R)-8-[(1S)-2,2-difluoro-1-hydroxy-7-pyridin-3-yl-1,3-dihydroinden-4-yl]-3,5-difluoro-5,6,7,8-tetrahydronaphthalene-1-carbonitrile]",< 100
11,"Cc1[nH]c(=O)ccc1-c1ccc([C@H]2CC[C@H](F)c3cc(F)cc(C#N)c32)c2c1[C@H](O)C(F)(F)C2 [Example 161, (5S,8R)-8-[(1S)-2,2-difluoro-1-hydroxy-7-(2-methyl-6-oxo-1H-pyridin-3-yl)-1,3-dihydroinden-4-yl]-3,5-difluoro-5,6,7,8-tetrahydronaphthalene-1-carbonitrile]",100 to 1000
12,"N#Cc1cc(F)cc2c1[C@@H](c1ccc(-c3cnccc3F)c3c1CC(F)(F)[C@H]3O)CC[C@@H]2F [Example 163, (5S,8R)-8-[(1S)-2,2-difluoro-7-(4-fluoropyridin-3-yl)-1-hydroxy-2,3-dihydro-1H-inden-4-yl]-3,5-difluoro-5,6,7,8-tetrahydronaphthalene-1-carbonitrile]",< 100
13,"N#Cc1cc(F)cc2c1[C@@H](c1ccc(-c3cccc4c3CC(=O)N4)c3c1CC(F)(F)[C@H]3O)CC[C@@H]2F [Example 164, (5S,8R)-8-[(1S)-2,2-difluoro-1-hydroxy-7-(2-oxo-2,3-dihydro-1H-indol-4-yl)-2,3-dihydro-1H-inden-4-yl]-3,5-difluoro-5,6,7,8-tetrahydronaphthalene-1-carbonitrile]",100 to 1000

# Second part, the compound after the results:
row,IC50 [nM],SMILES
1,100 to 1000,"N#Cc1cc(F)cc2c1[C@@H](c1ccc(-c3ccccc3CN)c3c1CC(F)(F)[C@H]3O)CC[C@@H]2F [Example 165, (5S,8R)-8-[(1S)-7-[2-(aminomethyl)phenyl]-2,2-difluoro-1-hydroxy-2,3-dihydro-1H-inden-4-yl]-3,5-difluoro-5,6,7,8-tetrahydronaphthalene-1-carbonitrile]"
2,< 100,"Cc1nc(N)ncc1-c1ccc([C@H]2CC[C@H](F)c3cc(F)cc(C#N)c32)c2c1[C@H](O)C(F)(F)C2 [Example 168, (5S,8R)-8-[(1S)-7-(2-amino-4-methylpyrimidin-5-yl)-2,2-difluoro-1-hydroxy-1,3-dihydroinden-4-yl]-3,5-difluoro-5,6,7,8-tetrahydronaphthalene-1-carbonitrile]"
3,< 100,"Cn1c(-c2ccc([C@H]3CC[C@H](F)c4cc(F)cc(C#N)c43)c3c2[C@H](O)C(F)(F)C3)cccc1=O [Example 171, (5S,8R)-8-[(1S)-2,2-difluoro-1-hydroxy-7-(1-methyl-6-oxopyridin-2-yl)-1,3-dihydroinden-4-yl]-3,5-difluoro-5,6,7,8-tetrahydronaphthalene-1-carbonitrile]"
4,> 1000,"N#Cc1cc(F)cc2c1[C@@H](c1ccc(-c3ccn[nH]3)c3c1C[C@@H](F)[C@H]3O)CC[C@@H]2F [Example 172, (5S,8R)-3,5-difluoro-8-[(1S,2R)-2-fluoro-1-hydroxy-7-(1H-pyrazol-5-yl)-2,3-dihydro-1H-inden-4-yl]-5,6,7,8-tetrahydronaphthalene-1-carbonitrile]"
5,< 100,"Cn1nncc1-c1ccc([C@H]2CC[C@H](F)c3cc(F)cc(C#N)c32)c2c1[C@H](O)[C@H](F)C2 [Example 175, (5S,8R)-3,5-difluoro-8-[(1S,2R)-2-fluoro-1-hydroxy-7-(3-methyltriazol-4-yl)-2,3-dihydro-1H-inden-4-yl]-5,6,7,8-tetrahydronaphthalene-1-carbonitrile]"
6,< 100,"Cc1nccnc1-c1ccc([C@H]2CC[C@H](F)c3cc(F)cc(C#N)c32)c2c1[C@H](O)C(F)(F)C2 [Example 176, (5S,8R)-8-[(1S)-2,2-difluoro-1-hydroxy-7-(3-methylpyrazin-2-yl)-1,3-dihydroinden-4-yl]-3,5-difluoro-5,6,7,8-tetrahydronaphthalene-1-carbonitrile]"
7,< 100,"N#Cc1cc(F)cc2c1[C@@H](c1ccc(-c3cncnc3N)c3c1CC(F)(F)[C@H]3O)CC[C@@H]2F [Example 177, (5S,8R)-8-[(1S)-7-(4-aminopyrimidin-5-yl)-2,2-difluoro-1-hydroxy-1,3-dihydroinden-4-yl]-3,5-difluoro-5,6,7,8-tetrahydronaphthalene-1-carbonitrile]"
8,100 to 1000,"N#Cc1cc(F)cc2c1[C@@H](c1ccc(-c3cnncc3N)c3c1CC(F)(F)[C@H]3O)CC[C@@H]2F [Example 178, (5S,8R)-8-[(1S)-7-(5-aminopyridazin-4-yl)-2,2-difluoro-1-hydroxy-1,3-dihydroinden-4-yl]-3,5-difluoro-5,6,7,8-tetrahydronaphthalene-1-carbonitrile]"
9,< 100,"Cc1nc(N)cnc1-c1ccc([C@H]2CC[C@H](F)c3cc(F)cc(C#N)c32)c2c1[C@H](O)C(F)(F)C2 [Example 179, (5S,8R)-8-[(1S)-7-(5-amino-3-methylpyrazin-2-yl)-2,2-difluoro-1-hydroxy-1,3-dihydroinden-4-yl]-3,5-difluoro-5,6,7,8-tetrahydronaphthalene-1-carbonitrile]"
